pIC50: −log10 of the molar value. Where two headings read alike, the source gives them in different places.
Assays:
[1] = molecular target: T1, cyclooxygenase (Rattus norvegicus, UniProt Q63921); test: inhibition of cyclooxygenase derived from rat basophilic leukemia (RBL-1) cells (PGD2 formation, C1); assay type: biochemical; details: RBL-1 enzyme, read-out: % Inhibition C1 (cyclooxygenase product PGD2)
T1 construct: 14C-arachidonic acid substrate, PGD2 measured
T1 sequence (Q63921 27-602): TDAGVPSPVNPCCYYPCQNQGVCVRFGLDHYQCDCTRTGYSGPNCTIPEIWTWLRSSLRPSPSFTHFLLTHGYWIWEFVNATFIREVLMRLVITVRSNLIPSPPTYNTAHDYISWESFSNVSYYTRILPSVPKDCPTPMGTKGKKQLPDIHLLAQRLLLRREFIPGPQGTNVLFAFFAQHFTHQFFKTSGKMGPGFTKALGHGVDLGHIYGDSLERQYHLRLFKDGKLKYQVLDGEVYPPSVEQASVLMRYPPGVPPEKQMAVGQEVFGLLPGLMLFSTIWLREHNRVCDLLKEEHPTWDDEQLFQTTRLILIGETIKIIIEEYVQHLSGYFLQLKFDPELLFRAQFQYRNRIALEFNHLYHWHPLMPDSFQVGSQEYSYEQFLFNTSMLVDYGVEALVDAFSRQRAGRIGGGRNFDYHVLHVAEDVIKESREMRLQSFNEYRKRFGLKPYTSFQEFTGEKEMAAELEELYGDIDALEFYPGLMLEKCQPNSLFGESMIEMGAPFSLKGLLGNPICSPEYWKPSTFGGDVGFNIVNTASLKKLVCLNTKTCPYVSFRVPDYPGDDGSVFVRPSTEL
Method: (§1) The primary screening test used is a determination of the inhibition of lipoxygenase and cyclooxygenase derived from rat basophilic leukemia (RBL-1) cells. The test was carried out according to the following procedure:
(§2) Single cell suspensions of RBL-1 cells are homogenized to obtain the microsomal fraction containing lipoxygenase and cyclooxygenase. Test compounds are added to the enzyme-containing homogenate for a 5 min preincubation period at 37° C. prior to the addition of ^14 C-arachidonic acid substrate. Following incubation at 37° C. for 15 min, the reaction is stopped by the addition of 2M formic acid and the enzyme-substrate products are extracted into chloroform. An aliquot of the extract is evaporated to dryness, reconstituted in ether to 1/10 original volume, spotted on thin layer chromatography plates and chromatographed. The peak areas of radioactivity representing the products are located by scanning the plates. The quantity of products formed is estimated by measuring the height of the radioactivity peaks observed on the chromatographic scans. Alternatively, the areas of radioactivity are scraped from the plate and the ^14 C quantitated by scintillation counting. The percent inhibition in the formation of the cyclooxygenase product PGD2, designated as Cl and lipoxygenase products, L1 designated for 5,12-di-HETE and L2 for 5-HETE are shown. Compounds with >50% inhibition of L1 and L2 at a screening concentration of 1 μM are considered active.
(§3) ^(a) Percent inhibition of cyclooxygenase (C1) and lipoxygenase (L1
(§4) and L2) formation at a dose of 1 μM.
(§5) ^(b) Inhibitory concentration (μ M) in 50% of tests.

[2] = test system: SRS-A component of immunologically induced broncho-construction; test: effect on the SRS-A component of immunologically induced bronchoconstriction in guinea pigs; assay type: in vivo; details: i.v.; for ED50: Cavia porcellus, iv, guinea pig, indomethacin + chlorpheniramine medicated, arachidonic acid, antigen challenge, read-out: In vivo Guinea Pig ED50 i.v.
Method: The test was carried out according to the following procedure:
Two weeks after immunization with egg albumin, guinea pigs are prepared for bronchoconstruction determination. One hour prior to antigen challenge, each animal is dosed orally with idomethacin and chlorpheniramine. Animals are anesthetized with sodium pentobarbital, the trachea cannulated and the animal artifically respired. Arachidonic acid is administered intravenously prior to antigen challenge. The resulting bronchoconstruction is recorded by the standard lung overflow procedure and the peak increase in intratracheal pressure (mm Hg) over a 10 minute observation period is recorded. Compounds are evaluated for their ability to prevent the increased intratracheal pressure in an experimental group of animals as compared to the medicated (indomethacin+chlorpheniramine+arachidonic acid) control group. The results are expressed in terms of percent inhibition or as ED50 values (effective does in 50% of the animals).

[3] = molecular target: T2, lipoxygenase (Rattus norvegicus, UniProt P12527); test: inhibition of lipoxygenase derived from rat basophilic leukemia (RBL-1) cells (L1 5,12-di-HETE and L2 5-HETE formation); assay type: biochemical; details: RBL-1 enzyme
T2 construct: Single cell suspensions of RBL-1 cells are homogenized to obtain the microsomal fraction containing lipoxygenase and cyclooxygenase; endogenous in cells; host or cells: RBL-1 (rat basophilic leukemia) cells, homogenate / microsomal fraction
T2 sequence (P12527 1-673): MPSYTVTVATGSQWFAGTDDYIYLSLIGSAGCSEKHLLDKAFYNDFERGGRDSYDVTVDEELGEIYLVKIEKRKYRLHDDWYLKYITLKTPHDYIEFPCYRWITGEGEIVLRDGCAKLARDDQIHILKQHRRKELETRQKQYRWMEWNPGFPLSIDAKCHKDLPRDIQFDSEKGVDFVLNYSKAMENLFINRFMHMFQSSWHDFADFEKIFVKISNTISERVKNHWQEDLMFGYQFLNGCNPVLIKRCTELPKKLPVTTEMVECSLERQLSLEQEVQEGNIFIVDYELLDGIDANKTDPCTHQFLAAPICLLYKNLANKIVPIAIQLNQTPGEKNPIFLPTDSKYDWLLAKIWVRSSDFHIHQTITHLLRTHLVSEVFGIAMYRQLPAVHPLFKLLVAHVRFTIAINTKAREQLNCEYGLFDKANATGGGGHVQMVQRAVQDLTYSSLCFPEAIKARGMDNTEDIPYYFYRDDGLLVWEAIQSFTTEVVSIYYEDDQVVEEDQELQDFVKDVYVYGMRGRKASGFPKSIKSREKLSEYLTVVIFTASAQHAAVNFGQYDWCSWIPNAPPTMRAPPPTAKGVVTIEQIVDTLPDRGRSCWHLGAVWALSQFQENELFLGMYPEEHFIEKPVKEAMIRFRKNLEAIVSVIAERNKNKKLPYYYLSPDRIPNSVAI
Method: as §1, §2, §3, §4, §5

[4] = L1 5,12-di-HETE, read-out: % Inhibition L1 (lipoxygenase product 5,12-di-HETE)
[5] = L2 5-HETE, read-out: % Inhibition L2 (lipoxygenase product 5-HETE)
[6] = L1 5,12-di-HETE, read-out: IC50 L1 (lipoxygenase product 5,12-di-HETE)
[7] = L2 5-HETE, read-out: IC50 L2 (lipoxygenase product 5-HETE)

| SMILES | inhibition at 1 µM [1] | ED50 [2] | inhibition at 1 µM [3, 4] | inhibition at 1 µM [3, 5] | pIC50 [3, 6] | pIC50 [3, 7] | In vivo Guinea Pig percent inhibition ([2]; 0.3 mg/kg) | In vivo Guinea Pig percent inhibition ([2]; 1-3 mg/kg) |
| --- | --- | --- | --- | --- | --- | --- | --- | --- |
| COc1ccc(Nc2ccc(O)cc2)c(CO)c1 [Example 1c, 2-(4-Hydroxyphenylamino)-5-methoxybenzenemethanol] | 2% | 0.13 mg/kg | 88% | 98% | 6.70 | 7.05 | – | – |
| OCc1ccccc1Nc1ccc(O)cc1 [Example 2c, 2-(4-Hydroxyphenylamino)benzenemethanol] | 4% | 0.84 mg/kg | 84% | 94% | 6.42 | 6.55 | – | – |
| OCc1cc(Cl)ccc1Nc1ccc(O)cc1 [Example 3c, 5-Chloro-2-(4-hydroxyphenylamino)benzenemethanol] | 6% | 0.49 mg/kg | 81% | 99% | 7.22 | 7.40 | – | – |
| OCc1ccc(Cl)cc1Nc1ccc(O)cc1 [Example 4c, 4-Chloro-2-(4-hydroxyphenylamino)benzenemethanol] | 24% | – | 82% | 100% | 6.64 | 6.80 | 43% | 63% |
| CC(O)c1ccccc1Nc1ccc(O)cc1 (stereo not drawn) [Example 5c, 2-(4-Hydroxyphenylamino)-α-methylbenzenemethanol] | 14% | – | 86% | 99% | 6.70 | 6.74 | – | – |
| COc1ccc(Nc2ccc(O)cc2)c(C(C)O)c1 (stereo not drawn) [Example 6c, 2-(4-Hydroxyphenylamino)-5-methoxy-α-methylbenzenemethanol] | 2% | – | 89% | 98% | 6.70 | 6.80 | – | – |
| COc1ccc(N=C2C=CC(=O)C=C2)c(CO)c1 [Example 8, 4-(2-Hydroxymethyl-4-methoxyphenylimino)-2,5-cyclohexadien-1-one] | 0% | 0.12 mg/kg | 85% | 96% | 6.72 | 6.82 | – | – |

Source: patent US4496590A, “Benzyl alcohol derivatives, their preparation and use” (Sterling Drug Inc., priority 1983, dated 1985)
